Where two headings read alike, the source gives them in different places.
Test system: test plant species
Experiment: Post-emergent herbicidal activity test (greenhouse, foliar spray, visual growth reduction)
Assay type: in vivo
Settings: post-emergence, 336 h, 140 g ai/ha
Method: Post-emergent Test: Seeds or nutlets of the desired test plant species were planted in Sun Gro Metro-Mix® 360 planting mixture, which typically has a pH of 6.0 to 6.8 and an organic matter content of about 30 percent, in plastic pots with a surface area of 64 square centimeters. In some aspects, to ensure good germination and healthy plants, a fungicide treatment and/or other chemical or physical treatment was applied. The plants were grown for 7-21 d in a greenhouse with an approximate 15 h photoperiod which was maintained at 23-29° C. during the day and 22-28° C. during the night. Nutrients and water were added on a regular basis and supplemental lighting was provided with overhead metal halide 1000-Watt lamps as necessary. Plants were used for testing when they reached the first or second true leaf stage. A weighed amount, determined by the highest rate to be tested, of each test compound was placed in a 25 mL glass vial and was dissolved in 4 mL of a 97:3 v/v mixture of acetone and DMSO to obtain concentrated stock solutions. […] The concentrated stock solutions obtained were diluted with 20 mL of an aqueous mixture containing acetone, water, isopropyl alcohol, DMSO, […] crop oil concentrate, and X-77 surfactant in a 48.5:39:10:1.5:1.0:0.02 v/v ratio to obtain spray solutions containing the application rate. Compound requirements are based upon a 12 mL application volume at a rate of 187 liters per hectare (L/ha). Formulated compounds were applied to the plant material with an overhead Mandel track sprayer equipped with […] nozzles calibrated to deliver 187 L/ha over an application area of 0.64 square meters at a spray height of 18 inches (43 cm) above the average plant canopy height. Control plants were sprayed in the same manner with the solvent blank. The treated plants and control plants were placed in a greenhouse as described above and watered by subirrigation to prevent wash-off of the test compounds. After 14 d, the condition of the test plants as compared with that of the nontreated and control plants was determined visually and scored on a scale of 0 to 100 percent where 0 corresponds to no injury and 100 corresponds to complete control. In the reporting of the results, Table A: Percent Growth Reduction Conversion Table was used.

[1] = ALOMY: blackgrass (Alopecurus myosuroides), 14 days after application, read-out: Visual Growth Reduction (%) 14 Days After Application, ALOMY
[2] = AMARE: redroot pigweed (Amaranthus retroflexus), 14 days after application, read-out: Visual Growth Reduction (%) 14 Days After Application, AMARE
[3] = AVEFA: wild oat (Avena fatua), 14 days after application, read-out: Visual Growth Reduction (%) 14 Days After Application, AVEFA
[4] = CHEAL: lambsquarters (Chenopodium album), 14 days after application, read-out: Visual Growth Reduction (%) 14 Days After Application, CHEAL
[5] = CIRAR: canada thistle (Cirsium arvense), 14 days after application, read-out: Visual Growth Reduction (%) 14 Days After Application, CIRAR
[6] = CYPES: yellow nutsedge (Cyperus esculentus), 14 days after application, read-out: Visual Growth Reduction (%) 14 Days After Application, CYPES
[7] = DIGSA: crabgrass (Digitaria sanguinalis), 14 days after application, read-out: Visual Growth Reduction (%) 14 Days After Application, DIGSA
[8] = ECHCG: barnyardgrass (Echinochloa crus-galli), 14 days after application, read-out: Visual Growth Reduction (%) 14 Days After Application, ECHCG
[9] = IPOHE: ivy-leaf morning glory (Ipomoea hederacea), 14 days after application, read-out: Visual Growth Reduction (%) 14 Days After Application, IPOHE
[10] = KCHSC: kochia (Bassia scoparia), 14 days after application, read-out: Visual Growth Reduction (%) 14 Days After Application, KCHSC
[11] = ORYSA: rice (Oryza sativa), 14 days after application, read-out: Visual Growth Reduction (%) 14 Days After Application, ORYSA
[12] = SETFA: giant foxtail (Setaria faberi), 14 days after application, read-out: Visual Growth Reduction (%) 14 Days After Application, SETFA
[13] = SORVU: grain sorghum (Sorghum vulgare), 14 days after application, read-out: Visual Growth Reduction (%) 14 Days After Application, SORVU
[14] = STEME: common chickweed (Stellaria media), 14 days after application, read-out: Visual Growth Reduction (%) 14 Days After Application, STEME
[15] = TRZAS: wheat, spring (Triticum aestivum), 14 days after application, read-out: Visual Growth Reduction (%) 14 Days After Application, TRZAS
[16] = blackgrass (Alopecurus myosuroides), 14 Days After Application, read-out: Visual Growth Reduction (%) ALOMY
[17] = canada thistle (Cirsium arvense), 14 Days After Application, read-out: Visual Growth Reduction (%) CIRAR
[18] = crabgrass (Digitaria sanguinalis), 14 Days After Application, read-out: Visual Growth Reduction (%) DIGSA
[19] = lambsquarters (Chenopodium album), 14 Days After Application, read-out: Visual Growth Reduction (%) CHEAL
[20] = redroot pigweed (Amaranthus retroflexus), 14 Days After Application, read-out: Visual Growth Reduction (%) AMARE
[21] = wild oat (Avena fatua), 14 Days After Application, read-out: Visual Growth Reduction (%) AVEFA
[22] = yellow nutsedge (Cyperus esculentus), 14 Days After Application, read-out: Visual Growth Reduction (%) CYPES

Row | SMILES | pest or weed control at 140 g/ha [1] [%] | pest or weed control at 140 g/ha [2] [%] | pest or weed control at 140 g/ha [3] [%] | pest or weed control at 140 g/ha [4] [%] | pest or weed control at 140 g/ha [5] [%] | pest or weed control at 140 g/ha [6] [%] | pest or weed control at 140 g/ha [7] [%] | pest or weed control at 140 g/ha [8] [%] | pest or weed control at 140 g/ha [9] [%] | pest or weed control at 140 g/ha [10] [%] | pest or weed control at 140 g/ha [11] [%] | pest or weed control at 140 g/ha [12] [%] | pest or weed control at 140 g/ha [13] [%] | pest or weed control at 140 g/ha [14] [%] | pest or weed control at 140 g/ha [15] [%] | pest or weed control at 140 g/ha [16] [%] | pest or weed control at 140 g/ha [17] [%] | pest or weed control at 140 g/ha [18] [%] | pest or weed control at 140 g/ha [19] [%] | pest or weed control at 140 g/ha [20] [%] | other results
1 | COC(=O)c1nc(-c2ccc(C(F)(F)F)cc2Cl)ccc1OC [F2, Methyl 6-(2-chloro-4-4-(trifluoromethyl)phenyl)-3-methoxypicolinate] | 0 to 29 | 60 to 74 | 0 to 29 | 0 to 29 | 0 to 29 | 0 to 29 | 85 to 94 | – | – | – | – | – | – | – | – | – | – | – | – | – | pest or weed control at 140 g/ha (barnyardgrass (Echinochloa crus-galli), 14 Days After Application, read-out: Visual Growth Reduction (%) ECHCG): 60 to 74%; pest or weed control at 140 g/ha (common chickweed (Stellaria media), 14 Days After Application, read-out: Visual Growth Reduction (%) STEME): 0 to 29%; pest or weed control at 140 g/ha (giant foxtail (Setaria faberi), 14 Days After Application, read-out: Visual Growth Reduction (%) SETFA): 30 to 44%; pest or weed control at 140 g/ha (ivy-leaf morning glory (Ipomoea hederacea), 14 Days After Application, read-out: Visual Growth Reduction (%) IPOHE): 85 to 94%; pest or weed control at 140 g/ha (johnsongrass (Sorghum vulgare), 14 Days After Application, read-out: Visual Growth Reduction (%) SORVU): 95 to 100%; pest or weed control at 140 g/ha (kochia (Bassia scoparia), 14 Days After Application, read-out: Visual Growth Reduction (%) KCHSC): 0 to 29%; pest or weed control at 140 g/ha (rice (Oryza sativa), 14 Days After Application, read-out: Visual Growth Reduction (%) ORYSA): 0 to 29%; pest or weed control at 140 g/ha (wheat, spring (Triticum aestivum), 14 Days After Application, read-out: Visual Growth Reduction (%) TRZAS): 45 to 59%
2 | COC(=O)c1nc(-c2cccc3c2OC(F)(F)O3)c(F)cc1Cl [F256, Methyl 3-chloro-6-(2,2-difluorobenzo[d][1,3]dioxol-4-yl)-5-fluoropicolinate] | – | – | – | – | – | – | – | 0 to 29 | 0 to 29 | 0 to 29 | 0 to 29 | 0 to 29 | 0 to 29 | 0 to 29 | 0 to 29 | 0 to 29 | 0 to 29 | 0 to 29 | 0 to 29 | 0 to 29 | pest or weed control at 140 g/ha [21]: 0 to 29%; pest or weed control at 140 g/ha [22]: 0 to 29%
3 | COC(=O)c1nc(-c2ccc(C(F)(F)F)cc2F)c(F)cc1Cl [F158, methyl 3-chloro-5-fluoro-6-(2-fluoro-4-(trifluoromethyl)phenyl)picolinate] | 0 to 29 | 95 to 100 | 30 to 44 | 95 to 100 | 85 to 94 | 0 to 29 | 85 to 94 | 45 to 59 | 95 to 100 | 60 to 74 | 0 to 29 | 75 to 84 | 75 to 84 | 0 to 29 | 60 to 74 | – | – | – | – | – | –
4 | COC(=O)c1nc(-c2cc(Cl)c(C#N)cc2Cl)ccc1Cl [F50, Methyl 3-chloro-6-(2,5-dichloro-4-cyanophenyl) picolinate] | 0 to 29 | 0 to 29 | 0 to 29 | 60 to 74 | 0 to 29 | 0 to 29 | 0 to 29 | 0 to 29 | – | 0 to 29 | 0 to 29 | 0 to 29 | 0 to 29 | 0 to 29 | 0 to 29 | – | – | – | – | – | –
5 | COC(=O)c1nc(-c2cc(C#N)c(C(F)(F)F)cc2Cl)c(F)cc1Cl [F321, Methyl 3-chloro-6-(2-chloro-5-cyano-4-(trifluoromethyl)phenyl)-5-fluoropicolinate] | – | – | – | – | – | – | – | 30 to 44 | 85 to 94 | 0 to 29 | 0 to 29 | 75 to 84 | 95 to 100 | 0 to 29 | 30 to 44 | 0 to 29 | 75 to 84 | 85 to 94 | 95 to 100 | 30 to 44 | pest or weed control at 140 g/ha [21]: 75 to 84%; pest or weed control at 140 g/ha [22]: 0 to 29%
6 | COC(=O)c1nc(-c2ccc(C(F)(F)F)c(F)c2F)ccc1Cl [F110, Methyl 3-chloro-6-(2,3-difluoro-4-(trifluoromethyl)phenyl)picolinate] | 0 to 29 | 85 to 94 | 0 to 29 | 75 to 84 | 85 to 94 | 0 to 29 | 0 to 29 | 0 to 29 | 95 to 100 | 0 to 29 | 0 to 29 | 0 to 29 | 60 to 74 | – | 0 to 29 | – | – | – | – | – | –
7 | COC(=O)c1nc(-c2ccc(C(F)(F)F)c(F)c2)c(F)cc1Cl [F307, Methyl 3-chloro-5-fluoro-6-(3-fluoro-4-(trifluoromethyl)phenyl) picolinate] | – | – | – | – | – | – | – | 0 to 29 | 95 to 100 | 0 to 29 | 0 to 29 | 0 to 29 | 85 to 94 | 0 to 29 | 0 to 29 | 0 to 29 | 0 to 29 | 85 to 94 | 75 to 84 | 75 to 84 | pest or weed control at 140 g/ha [21]: 0 to 29%; pest or weed control at 140 g/ha [22]: 0 to 29%

— patent publication US20230017045A1, “PYRIDINE AND PYRIMIDINE CARBOXYLATE HERBICIDES AND METHODS OF USE THEREOF” (Dow AgroSciences LLC, priority 2017, published 2023)
